Assay results taken from patent US20250000766A1, “ANTIMICROBIAL ESTERS FOR SKIN AND SCALP CARE” (SYMRISE AG, priority 2021, published 2025).
Like-named read-outs stand apart in the source and are kept apart here.

Columns and labels:
M. sympodialis = system: M. sympodialis; design: unit not given here; details: cited from earlier work
M. globosa = system: M. globosa; design: unit not given here; details: cited from earlier work
M. restricta = system: M. restricta; design: unit not given here; details: M. restricta strain 7877; cited from earlier work
M. sympodialis DSM 6171 = assay: Agar dilution test, growth inhibition (MIC) of M. sympodialis DSM 6171; assay type: cell-based; details: MLN agar, 7 days at 30° C.
Procedure: (§1) The fatty acid esters and their mixtures were tested for growth inhibition against Malassezia. The following reference strains were included:
(§2) Tests were performed in 6 well plates on solid media using agar dilution tests. Stock solutions of test substances were prepared in DMSO. Lower test concentrations were obtained by diluting stock solutions in DMSO.
(§3) Briefly, microorganisms are inoculated on modified Leeming & Notman (MLN) agar. A well grown plate is harvested in a 0.8% NaCl solution. Dilutions of test substances are prepared according to the concentration range required for the test. 5 μl of the test sample and controls are complemented with 500 μl MLN agar and mixed by shaking. 200 μl of liquid MLN per well are added onto the solidified agar. Afterwards, 20 μl of inoculum solution is added, with except of the blanks, and samples are incubated for 7 days at 30° C. Typical concentrations to be tested are 5000 ppm, 2500 ppm, and 1:1 dilutions from 1000 ppm (500 ppm, 250 ppm, etc).
(§4) Appropriate controls are included to show the growth of organisms without antifungal substances and antifungal activity of reference substances.

M. globosa CBS 7966 = assay: Agar dilution test, growth inhibition (MIC) of M. globosa CBS 7966; assay type: cell-based; details: MLN agar, 7 days at 30° C.
Procedure: as §1, §2, §3, §4

M. restricta CBS 7877 = assay: Agar dilution test, growth inhibition (MIC) of M. restricta CBS 7877; assay type: cell-based; details: MLN agar, 7 days at 30° C.
Procedure: as §1, §2, §3, §4

Row | Compound | MIC (M. sympodialis; M. sympodialis strain 6171) | MIC (M. sympodialis; M. sympodialis strain 7222) | MIC (M. sympodialis; M. sympodialis strain 7979) | MIC (M. sympodialis; M. sympodialis strain 42132) | MIC (M. globosa; M. globosa strain 7705) | MIC (M. globosa; M. globosa strain 7966) | MIC (M. restricta) | Minimal inhibitory concentration (MIC) (M. sympodialis DSM 6171) [ppm] | Minimal inhibitory concentration (MIC) (M. globosa CBS 7966) [ppm] | Minimal inhibitory concentration (MIC) (M. restricta CBS 7877) [ppm] | MIC (M. globosa; M. globosa strain PM1)
1 | CCCCCCCC(=O)OCC(O)CO (stereo not drawn) [Glyceryl monocaprylate, glyceryl monocaprylate] | 2,000 | 1,000 | 1,000 | 1,000 | 1,000 | 1,000 | 300 | – | – | – | –
2 | xylityl sesquicaprylate | – | – | – | – | – | – | – | 2.500 | 1.000 | 2.500 | –
3 | CCCCCCCC(=O)OCCCO [3-Hydroxypropyl caprylate, 3-hydroxypropyl caprylate] | 2,000 | 1,000 | 2,000 | 1,000 | 1,000 | 1,000 | 1,000 | – | – | – | 500
4 | CCCCCCCC(=O)OCC [Ethyl caprylate, ethyl caprylate] | 1,000 | 1,000 | 1,000 | 1,000 | – | 1,000 | 4,000 | – | – | – | 1,000
5 | polyglyceryl-3 caprylate [Polyglyceryl-3-caprylate] | – | – | – | – | – | – | – | 2.500 | 1.000 | – | –
6 | sorbitan caprylate | – | – | – | – | – | – | – | 5.000 | 1.000 | 2.500 | –
